These results are taken from US20080280906A1, “Imidazolyl-Pyrimidine Compounds for Use in the Treatment of Proliferative Disorders” (priority 2005, published 2008).

The experiment has as its target T1, CDK2/Cyclin E (Homo sapiens, UniProt P24941).
T1 construct: The open reading frames of CDK2 and Cyclin E were isolated by reverse transcriptase-PCR; made in house; host or cells: SF21 (Spodoptera frugiperda) insect cells, baculovirus co-infection
Description: in vitro kinase assay, Scintillation Proximity Assay (SPA), [γ-33-P]-ATP incorporation into GST-Rb. Type of experiment: biochemical. To be noted: GST-Rb substrate, 0.2 μM ATP, 60 minutes room temperature, read-out: CDK2 inhibitory activity IC50. On the procedure:
The compounds were tested in an in vitro kinase assay in 96 well format using Scintillation Proximity Assay (SPA—obtained from Amersham) for measuring incorporation of [γ-33-P]-Adenosine Triphosphate into a test substrate (GST-Retinoblastoma protein; GST-Rb). In each well was placed the compound to be tested (diluted in DMSO and water to correct concentrations) and in control wells either roscovitine as an inhibitor control or DMSO as a positive control. […]
The plates were sealed with Topseal-S plate sealers, left for two hours then spun at 2500 rpm, 1124×g., for 5 minutes. The plates were read on a Topcount for 30 seconds per well. […]
E. coli paste was resuspended in 10 ml/g of NETN buffer (50 mM Tris pH 7.5, 120 mM NaCl, 1 mM EDTA, 0.5% v/v NP-40, 1 mM PMSF, 1 ug/ml leupeptin, 1 ug/ml aprotinin and 1 ug/ml pepstatin) and sonicated for 2×45 seconds per 100 ml homogenate. […] The final product was analysed by Sodium Dodeca Sulfate (SDS) PAGE (Polyacrylamide gel) using 8-16% Tris-Glycine gels (Novex, San Diego, USA).
The open reading frames of CDK2 and Cyclin E were isolated by reverse transcriptase-PCR using HeLa cell and activated T cell mRNA as a template and cloned into the insect expression vector pVL1393 (obtained from Invitrogen 1995 catalogue number: V1392-20). […]

As usually defined, the IC50 is the midpoint of a concentration-inhibition curve.

Regarding `Cc1ncc(-c2ccnc(Nc3ccc(C(=O)N4CCOCC4)cc3)n2)n1C(C)C` [Example 14], the IC50 came to 3 nM.
